# Data: PubChem BioAssay (NCI)
#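 Cells were grown in 96-well plates and exposed to each compound for 48 hours at five concentrations; endpoints were interpolated linearly between bracketing concentrations, or set to the highest concentration if not reached. At the GI50, growth is halved. The concentration for full growth arrest is given as TGI.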
# Tests used:
# Assay in all cases: inhibition of tumour cell growth, NCI panel, 48 h
# 786-0 renal = tested on: 786-0 renal
# A498 renal = tested on: A498 renal
# A549 NSCLC = tested on: A549 NSCLC
# ACHN renal = tested on: ACHN renal
# BT-549 breast = tested on: BT-549 breast
# CAKI-1 renal = tested on: CAKI-1 renal
# CCRF-CEM leukemia = tested on: CCRF-CEM leukemia
# COLO 205 colon = tested on: COLO 205 colon
# DU-145 prostate = tested on: DU-145 prostate
# HCC-2998 colon = tested on: HCC-2998 colon
# HCT-116 colon = tested on: HCT-116 colon
# HCT-15 colon = tested on: HCT-15 colon
# HL-60(TB) leukemia = tested on: HL-60(TB) leukemia
# HOP-62 NSCLC = tested on: HOP-62 NSCLC
# HS 578T breast = tested on: HS 578T breast
# HT29 colon = tested on: HT29 colon
# IGROV1 ovarian = tested on: IGROV1 ovarian
# K-562 leukemia = tested on: K-562 leukemia
# KM12 colon = tested on: KM12 colon
# LOX IMVI melanoma = tested on: LOX IMVI melanoma
# M14 melanoma = tested on: M14 melanoma
# MCF7 breast = tested on: MCF7 breast
# MDA-MB-231 breast = tested on: MDA-MB-231 breast
# MDA-MB-435 = tested on: MDA-MB-435
# MOLT-4 leukemia = tested on: MOLT-4 leukemia
# NCI-H226 lung = tested on: NCI-H226 lung
# NCI-H460 lung = tested on: NCI-H460 lung
# NCI-H522 lung = tested on: NCI-H522 lung
# NCI/ADR-RES ovarian = tested on: NCI/ADR-RES ovarian
# OVCAR-3 ovarian = tested on: OVCAR-3 ovarian
# OVCAR-4 ovarian = tested on: OVCAR-4 ovarian
# OVCAR-5 ovarian = tested on: OVCAR-5 ovarian
# OVCAR-8 ovarian = tested on: OVCAR-8 ovarian
# PC-3 prostate = tested on: PC-3 prostate
# RPMI-8226 leukemia = tested on: RPMI-8226 leukemia
# RXF 393 renal = tested on: RXF 393 renal
# SF-268 CNS = tested on: SF-268 CNS
# SF-295 CNS = tested on: SF-295 CNS
# SF-539 CNS = tested on: SF-539 CNS
# SK-MEL-2 melanoma = tested on: SK-MEL-2 melanoma
# SK-MEL-28 melanoma = tested on: SK-MEL-28 melanoma
# SK-MEL-5 melanoma = tested on: SK-MEL-5 melanoma
# SK-OV-3 ovarian = tested on: SK-OV-3 ovarian
# SN12C renal = tested on: SN12C renal
# SNB-19 CNS = tested on: SNB-19 CNS
# SNB-75 CNS = tested on: SNB-75 CNS
# SR leukemia = tested on: SR leukemia
# SW-620 colon = tested on: SW-620 colon
# U251 CNS = tested on: U251 CNS
# UACC-257 melanoma = tested on: UACC-257 melanoma
# UACC-62 melanoma = tested on: UACC-62 melanoma
# UO-31 renal = tested on: UO-31 renal
# EKVX NSCLC = tested on: EKVX NSCLC
# HOP-92 NSCLC = tested on: HOP-92 NSCLC
# NCI-H23 lung = tested on: NCI-H23 lung
# T-47D breast = tested on: T-47D breast
# TK-10 renal = tested on: TK-10 renal
structure (smiles),measurement,setting,value
CC1(C)N=C(N)N=C(N)N1c1cccc(/C=C/C=C/c2cccc([N+](=O)[O-])c2)c1,GI50,786-0 renal,21.3 µM
same,TGI,786-0 renal,52.9 µM
same,GI50,A498 renal,13 µM
same,TGI,A498 renal,39.3 µM
same,GI50,A549 NSCLC,3.9 µM
same,TGI,A549 NSCLC,24 µM
same,GI50,ACHN renal,75.7 µM
same,TGI,ACHN renal,> 100 µM
same,GI50,BT-549 breast,6.91 µM
same,TGI,BT-549 breast,23.8 µM
same,GI50,CAKI-1 renal,75.3 µM
same,TGI,CAKI-1 renal,> 100 µM
same,GI50,CCRF-CEM leukemia,3.61 µM
same,TGI,CCRF-CEM leukemia,18.9 µM
same,GI50,COLO 205 colon,4.4 µM
same,TGI,COLO 205 colon,19.8 µM
same,GI50,DU-145 prostate,7.5 µM
same,TGI,DU-145 prostate,20.2 µM
same,GI50,HCC-2998 colon,4.71 µM
same,TGI,HCC-2998 colon,18.5 µM
same,GI50,HCT-116 colon,3.16 µM
same,TGI,HCT-116 colon,30.4 µM
same,GI50,HCT-15 colon,98.1 µM
same,TGI,HCT-15 colon,> 100 µM
same,GI50,HL-60(TB) leukemia,2.55 µM
same,TGI,HL-60(TB) leukemia,13 µM
same,GI50,HOP-62 NSCLC,18.1 µM
same,TGI,HOP-62 NSCLC,35.9 µM
same,GI50,HS 578T breast,12.9 µM
same,TGI,HS 578T breast,34.7 µM
same,GI50,HT29 colon,1.59 µM
same,TGI,HT29 colon,14.7 µM
same,GI50,IGROV1 ovarian,1.18 µM
same,TGI,IGROV1 ovarian,13.7 µM
same,GI50,K-562 leukemia,3.29 µM
same,TGI,K-562 leukemia,19.6 µM
same,GI50,KM12 colon,2.59 µM
same,TGI,KM12 colon,15.5 µM
same,GI50,LOX IMVI melanoma,5.02 µM
same,TGI,LOX IMVI melanoma,19.2 µM
same,GI50,M14 melanoma,13.6 µM
same,TGI,M14 melanoma,50.1 µM
same,GI50,MCF7 breast,5.57 µM
same,TGI,MCF7 breast,22.4 µM
same,GI50,MDA-MB-231 breast,10.3 µM
same,TGI,MDA-MB-231 breast,24.4 µM
same,GI50,MDA-MB-435,2.68 µM
same,TGI,MDA-MB-435,15.2 µM
same,GI50,MOLT-4 leukemia,5.9 µM
same,TGI,MOLT-4 leukemia,23.6 µM
same,GI50,NCI-H226 lung,10.9 µM
same,TGI,NCI-H226 lung,34.1 µM
same,GI50,NCI-H460 lung,2.85 µM
same,TGI,NCI-H460 lung,15.3 µM
same,GI50,NCI-H522 lung,4.72 µM
same,TGI,NCI-H522 lung,20.1 µM
same,GI50,NCI/ADR-RES ovarian,> 100 µM
same,TGI,NCI/ADR-RES ovarian,> 100 µM
same,GI50,OVCAR-3 ovarian,1.89 µM
same,TGI,OVCAR-3 ovarian,13.1 µM
same,GI50,OVCAR-4 ovarian,5.54 µM
same,TGI,OVCAR-4 ovarian,22.5 µM
same,GI50,OVCAR-5 ovarian,10.5 µM
same,TGI,OVCAR-5 ovarian,42.5 µM
same,GI50,OVCAR-8 ovarian,13.8 µM
same,TGI,OVCAR-8 ovarian,30 µM
same,GI50,PC-3 prostate,0.448 µM
same,TGI,PC-3 prostate,11.8 µM
same,GI50,RPMI-8226 leukemia,1.31 µM
same,TGI,RPMI-8226 leukemia,16.3 µM
same,GI50,RXF 393 renal,17.4 µM
same,TGI,RXF 393 renal,> 100 µM
same,GI50,SF-268 CNS,3.64 µM
same,TGI,SF-268 CNS,17.4 µM
same,GI50,SF-295 CNS,10.3 µM
same,TGI,SF-295 CNS,28.3 µM
same,GI50,SF-539 CNS,4.43 µM
same,TGI,SF-539 CNS,17.6 µM
same,GI50,SK-MEL-2 melanoma,13.4 µM
same,TGI,SK-MEL-2 melanoma,28.5 µM
same,GI50,SK-MEL-28 melanoma,7.1 µM
same,TGI,SK-MEL-28 melanoma,20.5 µM
same,GI50,SK-MEL-5 melanoma,2.96 µM
same,TGI,SK-MEL-5 melanoma,12.5 µM
same,GI50,SK-OV-3 ovarian,32.1 µM
same,TGI,SK-OV-3 ovarian,> 100 µM
same,GI50,SN12C renal,5.3 µM
same,TGI,SN12C renal,20.1 µM
same,GI50,SNB-19 CNS,6.04 µM
same,TGI,SNB-19 CNS,22.5 µM
same,GI50,SNB-75 CNS,6.88 µM
same,TGI,SNB-75 CNS,21.5 µM
same,GI50,SR leukemia,4.71 µM
same,TGI,SR leukemia,29.2 µM
same,GI50,SW-620 colon,2.56 µM
same,TGI,SW-620 colon,18.8 µM
same,GI50,U251 CNS,0.801 µM
same,TGI,U251 CNS,13.6 µM
same,GI50,UACC-257 melanoma,5.42 µM
same,TGI,UACC-257 melanoma,20.2 µM
same,GI50,UACC-62 melanoma,3.74 µM
same,TGI,UACC-62 melanoma,17.9 µM
same,GI50,UO-31 renal,55.2 µM
same,TGI,UO-31 renal,> 100 µM
Cc1ccc(S(=O)(=O)N2CCCSCCSCCCSCC2)cc1,TGI,786-0 renal,> 100 µM
same,TGI,A549 NSCLC,> 100 µM
same,TGI,BT-549 breast,> 100 µM
same,TGI,CCRF-CEM leukemia,> 100 µM
same,TGI,COLO 205 colon,> 100 µM
same,TGI,DU-145 prostate,> 100 µM
same,TGI,EKVX NSCLC,> 100 µM
same,TGI,HCC-2998 colon,> 100 µM
same,TGI,HCT-116 colon,> 100 µM
same,TGI,HCT-15 colon,> 100 µM
same,TGI,HL-60(TB) leukemia,> 100 µM
same,TGI,HOP-62 NSCLC,> 100 µM
same,TGI,HOP-92 NSCLC,> 100 µM
same,TGI,HT29 colon,> 100 µM
same,TGI,IGROV1 ovarian,> 100 µM
same,TGI,K-562 leukemia,> 100 µM
same,TGI,KM12 colon,> 100 µM
same,TGI,LOX IMVI melanoma,> 100 µM
same,TGI,M14 melanoma,> 100 µM
same,TGI,MCF7 breast,> 100 µM
same,TGI,MDA-MB-231 breast,> 100 µM
same,TGI,MDA-MB-435,> 100 µM
same,TGI,MOLT-4 leukemia,> 100 µM
same,TGI,NCI-H23 lung,> 100 µM
same,TGI,NCI-H460 lung,> 100 µM
same,TGI,NCI-H522 lung,> 100 µM
same,TGI,NCI/ADR-RES ovarian,> 100 µM
same,TGI,OVCAR-3 ovarian,> 100 µM
same,TGI,OVCAR-4 ovarian,> 100 µM
same,TGI,OVCAR-5 ovarian,> 100 µM
same,TGI,OVCAR-8 ovarian,> 100 µM
same,TGI,PC-3 prostate,> 100 µM
same,TGI,SF-268 CNS,> 100 µM
same,TGI,SF-295 CNS,> 100 µM
same,TGI,SF-539 CNS,> 100 µM
same,TGI,SK-MEL-28 melanoma,> 100 µM
same,TGI,SK-MEL-5 melanoma,> 100 µM
same,TGI,SK-OV-3 ovarian,> 100 µM
same,TGI,SN12C renal,> 100 µM
same,TGI,SNB-19 CNS,> 100 µM
same,TGI,SNB-75 CNS,> 100 µM
same,TGI,SR leukemia,> 100 µM
same,TGI,SW-620 colon,> 100 µM
same,TGI,T-47D breast,> 100 µM
same,TGI,TK-10 renal,> 100 µM
same,TGI,U251 CNS,> 100 µM
same,TGI,UACC-257 melanoma,> 100 µM
same,TGI,UACC-62 melanoma,> 100 µM
same,TGI,UO-31 renal,> 100 µM
